In the Kinase Knowledgebase extract (Sharma et al. 2016):

Key:
[1] = target: MAPK14 (human) (UniProt Q16539); details: pbmc
[2] = target: MAPK14 (UniProt Q16539)
[3] = target: MAPK14 (human) (UniProt Q16539); details: pbmc; remark: listed apart in the source
[4] = target: MAPK14, Q16539 [p38 beta Inhibition]
[5] = target: MAPK14 (human) (UniProt Q16539); details: pbmc; remark: listed apart in the source
[6] = system: MAPK14 (rat); details: pbmc
[7] = system: MAPK14 (dog); details: pbmc
[8] = target: MAPK14 (human) (UniProt Q16539); details: pbmc; remark: listed apart in the source

MAPK14 (human), sequence (Q16539 whole entry, looked up): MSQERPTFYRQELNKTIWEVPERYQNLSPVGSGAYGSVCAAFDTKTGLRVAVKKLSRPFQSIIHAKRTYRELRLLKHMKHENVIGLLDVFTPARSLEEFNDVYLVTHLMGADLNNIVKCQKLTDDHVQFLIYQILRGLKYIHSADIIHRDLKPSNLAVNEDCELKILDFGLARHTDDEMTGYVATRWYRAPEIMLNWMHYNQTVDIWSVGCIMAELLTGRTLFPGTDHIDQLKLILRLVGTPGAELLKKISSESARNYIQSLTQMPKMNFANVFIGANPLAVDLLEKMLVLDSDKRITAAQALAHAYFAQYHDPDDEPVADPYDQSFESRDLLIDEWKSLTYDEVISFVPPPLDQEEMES
MAPK14, sequence (Q16539 whole entry, looked up): as above
MAPK14, Q16539 [p38 beta Inhibition], sequence (Q16539 whole entry, looked up, change not shown): as the sequence (Q16539 whole entry, looked up) above

OCCC#Cc1nc(-c2ccc(F)cc2)c(-c2ccncc2)n1CCCc1ccccc1
IC50 [1]: 6 nM | IC50 [2]: 1000 nM | IC50 [3]: 11 nM | IC50 [4]: 11000 nM | IC50 [5]: 13 nM | IC50 [6]: 580 nM | IC50 [7]: 15 nM | IC50 [8]: 3 nM
